Patent US20250136558A1, “PYRAZINE COMPOUNDS AS IRREVERSIBLE INHIBITORS OF FLT3” (BIOMEA FUSION, INC., priority 2021, published 2025)

Experiments:
Assay type in all cases: cell-based
[1] = system: MV-4-11; assay: Proliferation inhibition (CellTiter-Glo) in MV-4-11 cells; conditions: Homo sapiens, MV4-11, 96 h, MV-4-11 AML cells, homozygous FLT3-ITD, IC50 (4 days)
In short: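 MV-4-11 human AML cells (homozygous FLT3-ITD) grown in RPMI-1640 with 10% heat-inactivated FBS and 1% Pen-Strep were seeded at about 10,000 cells per 200 μL in 96 well plates. Two hours later, compounds were dispensed at eight concentrations in duplicate. Viability was measured by CellTiter-Glo luminescence, and IC50 values came from four-parameter logistic non-linear regression against untreated cells (0.2% DMSO).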

[2] = system: MOLM-13; assay: Proliferation inhibition (CellTiter-Glo) in MOLM-13 cells; conditions: Homo sapiens, 96 h, MOLM-13 AML cells, heterozygous FLT3-ITD, IC50 (4 days)
In short: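 MOLM-13 human AML cells, heterozygous for FLT3-ITD, were grown in RPMI-1640 with 10% heat-inactivated FBS and 1% Pen-Strep. About 10,000 cells in 200 μL were seeded per well of 96-well plates. After 2 hours, compounds from DMSO stocks were dispensed at eight concentrations in duplicate, with 0.2% DMSO as the untreated control. Viability was read as CellTiter-Glo ATP luminescence, and IC50 was obtained from a four-parameter logistic fit.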

[3] = system: K-562; assay: Proliferation inhibition (CellTiter-Glo) in K-562 cells; conditions: Homo sapiens, K562, 96 h, K-562 CML cells, no FLT3 mutations, IC50 (4 days)
In short: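 The CML line […] (ATCC: CRL-3343) was cultured in RPMI-1640 with 10% heat-inactivated FBS and 1% Pen-Strep at 37° C. Cells were seeded at about 10,000 per 200 μL in 96-well plates, and test compound was dispensed 2 hours later at eight concentrations in duplicate. Viability was measured as ATP luminescence with CellTiter-Glo. Untreated cells (0.2% DMSO) defined 100% proliferation, and IC50 values came from four-parameter logistic fits.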

Row | IC50 [1] | IC50 [2] | IC50 [3] | SMILES
1 | < 1 nM | 1 to 10 nM | > 500 nM | CCc1nc(C(N)=O)c(Nc2cccc(OC(C)CNC(=O)[C@H](C)N(C)C(=O)/C=C/CN(C)C)c2)nc1NC1CCOCC1 (stereo partly drawn) [Compound 115A, 3-[3-[2-[[(2S)-2-[[(E)-4-(dimethylamino)but-2-enoyl]-methyl-amino]propanoyl]amino]-1-methyl-ethoxy]anilino]-6-ethyl-5-(tetrahydropyran-4-ylamino)pyrazine-2-carboxamide]
2 | < 1 nM | < 1 nM | > 500 nM | CCc1nc(C(N)=O)c(Nc2cccc(OCCCNC(=O)[C@H](C)N(C)C(=O)/C=C/CN(C)C)c2)nc1N(C)C1CCOCC1 [Compound 116, (S,E)-3-((3-(3-(2-(4-(dimethylamino)-N-methylbut-2-enamido)propanamido)propoxy)phenyl)amino)-6-ethyl-5-(methyl(tetrahydro-2H-pyran-4-yl)amino)pyrazine-2-carboxamide]
3 | < 1 nM | 1 to 10 nM | > 500 nM | CCc1nc(C(N)=O)c(Nc2cccc(OCCCNC(=O)[C@H](C)N(C)C(=O)/C=C/CN(C)C)c2)nc1N(C)C [Compound 118, (S,E)-5-(dimethylamino)-3-((3-(3-(2-(4-(dimethylamino)-N-methylbut-2-enamido)propanamido)propoxy)phenyl)amino)-6-ethylpyrazine-2-carboxamide]
4 | 1 to 10 nM | 1 to 10 nM | > 500 nM | CCc1nc(C(N)=O)c(Nc2cccc(OCCCNC(=O)[C@H](C)N(C)C(=O)/C=C/CN(C)C)c2)nc1NC [Compound 119, (S,E)-3-((3-(3-(2-(4-(dimethylamino)-N-methylbut-2-enamido)propanamido)propoxy)phenyl)amino)-6-ethyl-5 (methylamino)pyrazine-2-carboxamide]
5 | 1 to 10 nM | 1 to 10 nM | > 500 nM | CCc1nc(C(N)=O)c(Nc2cccc(OCCCNC(=O)[C@H](C)N(C)C(=O)/C=C/CN(C)C)c2)nc1OC [Compound 120, (S,E)-3-((3-(3-(2-(4-(dimethylamino)-N-methylbut-2-enamido)propanamido)propoxy)phenyl)amino)-6-ethyl-5-methoxypyrazine-2-carboxamide]
6 | 10 to 100 nM | 100 to 500 nM | > 500 nM | CCc1cnc(Nc2cccc(OCCCNC(=O)[C@H](C)N(C)C(=O)/C=C/CN(C)C)c2)c(C(N)=O)n1 [Compound 121, (S,E)-3-((3-(3-(2-(4-(dimethylamino)-N-methylbut-2-enamido)propanamido)propoxy)phenyl)amino)-6-ethylpyrazine-2-carboxamide]
7 | < 1 nM | < 1 nM | > 500 nM | CCc1nc(C(N)=O)c(Nc2cccc(OCCCNC(=O)[C@H](C)N(C)C(=O)/C=C/CN(C)C)c2)nc1NC(CC)CC [Compound 122, (S,E)-3-((3-(3-(2-(4-(dimethylamino)-N-methylbut-2-enamido)propanamido)propoxy)phenyl)amino)-6-ethyl-5-(pentan-3-ylamino)pyrazine-2-carboxamide]
8 | < 1 nM | 1 to 10 nM | > 500 nM | CCc1nc(C(N)=O)c(Nc2cccc(OCCCNC(=O)[C@H](C)N(C)C(=O)/C=C/CN(C)C)c2)nc1NC1CCC(F)(F)CC1 [Compound 123, (S,E)-5-((4,4-difluorocyclohexyl)amino)-3-((3-(3-(2-(4-(dimethylamino)-N-methylbut-2-enamido)propanamido)propoxy)phenyl)amino)-6-ethylpyrazine-2-carboxamide]
9 | 1 to 10 nM | < 1 nM | > 500 nM | CCc1nc(C(N)=O)c(Nc2cccc(OCCCNC(=O)[C@H](C)N(C)C(=O)/C=C/CN(C)C)c2)nc1NC(C)C [Compound 124, (S,E)-3-((3-(3-(2-(4-(dimethylamino)-N-methylbut-2-enamido)propanamido)propoxy)phenyl)amino)-6-ethyl-5-(isopropylamino)pyrazine-2-carboxamide]
10 | 1 to 10 nM | 10 to 100 nM | > 500 nM | CCc1nc(C(N)=O)c(Nc2cccc(OCCCNC(=O)[C@H](C)N(C)C(=O)/C=C/CN(C)C)c2)nc1C1CC1 [Compound 125, (S,E)-5-cyclopropyl-3-((3-(3-(2-(4-(dimethylamino)-N-methylbut-2-enamido)propanamido)propoxy)phenyl)amino)-6-ethylpyrazine-2-carboxamide]
11 | 1 to 10 nM | 10 to 100 nM | > 500 nM | CCc1nc(C(N)=O)c(Nc2cccc(OCCCNC(=O)[C@H](C)N(C)C(=O)/C=C/CN(C)C)c2)nc1C [Compound 126, (S,E)-3-((3-(3-(2-(4-(dimethylamino)-N-methylbut-2-enamido)propanamido)propoxy)phenyl)amino)-6-ethyl-5-methylpyrazine-2-carboxamide]
12 | 1 to 10 nM | 1 to 10 nM | > 500 nM | CC#CC(=O)N(C)[C@@H](C)C(=O)NCCCOc1cc(F)cc(Nc2nc(NC3CCOCC3)c(CC)nc2C(N)=O)c1 [Compound 128, (S)-6-ethyl-3-((3-fluoro-5-(3-(2-(N-methylbut-2-ynamido)propanamido)propoxy)phenyl)amino)-5-((tetrahydro-2H-pyran-4-yl)amino)pyrazine-2-carboxamide]
13 | < 1 nM | < 1 nM | > 500 nM | CCc1nc(C(N)=O)c(Nc2cc(F)cc(OCCCNC(=O)[C@H](C)N(C)C(=O)/C=C/CN(C)C)c2)nc1NC1CCOCC1 [Compound 129, (S,E)-3-((3-(3-(2-(4-(Dimethylamino)-N-methylbut-2-enamido)propanamido)propoxy)-5-fluorophenyl)amino)-6-ethyl-5-((tetrahydro-2H-pyran-4-yl)amino)pyrazine-2-carboxamide]
14 | 1 to 10 nM | 10 to 100 nM | > 500 nM | C[C@@H](C(=O)NCCCOc1cccc(Nc2nc(NC3CCOCC3)cnc2C(N)=O)c1)N(C)C(=O)/C=C/CN(C)C [Compound 130, (S,E)-3-((3-(3-(2-(4-(dimethylamino)-N-methylbut-2-enamido)propanamido)propoxy)phenyl)amino)-5-((tetrahydro-2H-pyran-4-yl)amino)pyrazine-2-carboxamide]
15 | 1 to 10 nM | 10 to 100 nM | > 500 nM | CCc1nc(C(N)=O)c(Nc2cc(CCNC(=O)[C@H](C(C)C)N(C)C(=O)/C=C/CN(C)C)cc(OC)c2)nc1NC1CCOCC1 [Compound 131, (S,E)-3-((3-(2-(2-(4-(dimethylamino)-N-methylbut-2-enamido)-3-methylbutanamido)ethyl)-5-methoxyphenyl)amino)-6-ethyl-5-((tetrahydro-2H-pyran-4-yl)amino)pyrazine-2-carboxamide]
16 | < 1 nM | 1 to 10 nM | > 500 nM | Cc1nc(C(N)=O)c(Nc2cccc(OCCCNC(=O)[C@H](C)N(C)C(=O)/C=C/CN(C)C)c2)nc1NC1CCOCC1 [Compound 132, (S,E)-3-((3-(3-(2-(4-(dimethylamino)-N-methylbut-2-enamido)propanamido)propoxy)phenyl)amino)-6-methyl-5-((tetrahydro-2H-pyran-4-yl)amino)pyrazine-2-carboxamide]
17 | < 1 nM | 1 to 10 nM | > 500 nM | C[C@@H](C(=O)NCCCOc1cccc(Nc2nc(NC3CCOCC3)c(C3CC3)nc2C(N)=O)c1)N(C)C(=O)/C=C/CN(C)C [Compound 133, (S,E)-6-cyclopropyl-3-((3-(3-(2-(4-(dimethylamino)-N-methylbut-2-enamido)propanamido)propoxy)phenyl)amino)-5-((tetrahydro-2H-pyran-4-yl)amino)pyrazine-2-carboxamide]
18 | < 1 nM | 1 to 10 nM | > 500 nM | CCc1nc(C(N)=O)c(Nc2cccc(OCCCNC(=O)[C@H](C)N(C)C(=O)/C=C/CN3CCC3)c2)nc1NC1CCOCC1 [Compound 134, (S,E)-3-((3-(3-(2-(4-(azetidin-1-yl)-N-methylbut-2-enamido)propanamido)propoxy)phenyl)amino)-6-ethyl-5-((tetrahydro-2H-pyran-4-yl)amino)pyrazine-2-carboxamide]
19 | < 1 nM | < 1 nM | > 500 nM | CCc1nc(C(N)=O)c(Nc2cccc(CCNC(=O)[C@H](C)N(C)C(=O)/C=C/CN(C)C)c2)nc1NC1CCOCC1 [Compound 135, (S,E)-3-((3-(2-(2-(4-(dimethylamino)-N-methylbut-2-enamido)propanamido)ethyl)phenyl)amino)-6-ethyl-5-((tetrahydro-2H-pyran-4-yl)amino)pyrazine-2-carboxamide]
20 | < 1 nM | 1 to 10 nM | > 500 nM | CCc1nc(C(N)=O)c(Nc2cc(CCNC(=O)[C@H](C)N(C)C(=O)C#CCN(C)C)cc(OC)c2)nc1NC1CCOCC1 [Compound 136, (S)-3-((3-(2-(2-(4-(dimethylamino)-N-methylbut-2-ynamido)propanamido)ethyl)-5-methoxyphenyl)amino)-6-ethyl-5-((tetrahydro-2H-pyran-4-yl)amino)pyrazine-2-carboxamide]
